According to patent US8058258B2, “Methods for cancer therapy and stem cell modulation” (Agency for Science, Technology and Research, priority 2006, dated 2011):

How the values were obtained:
DNMT1 or DNMT3B = assay: Western blot of DNMT protein expression; type: cell-based, human; conditions: HCT116 or MCF-7 cells, 5 μM, 48 and 72 hours
Protocol: Cell lines used in these examples were purchased from the American Type Culture Collection (Manassas, Va.). Cells were maintained in DMEM supplemented with 10% fetal bovine serum with glutamine, penicillin, and streptomycin. For drug treatment, cells were seeded the day before the drug treatment. Cells were treated with 5 μM 3-Deazaneplanocin A or 2 μM 5-aza-2'-deoxycytidine (5-AzaC; Sigma) for 72 hours and trichostatin A (TSA; Sigma) at 100 nM for 24 hours. For co-treatment of cells with 5-AzaC and TSA, 5-Aza was added for 48 hours and followed by TSA for 24 hours. Cell pellets were first lysed in RadioImmuno Precipitation Assay (RIPA) buffer, consisting of an aqueous solution of 25 mM Tris-HCl pH 7.6, 150 mM NaCl, 1% Nonidet-P 40 (NP-40), 1% sodium deoxycholate and 0.1% sodium dodecylsulfate (SDS), before further sonicated using a tissue homogeniser to release all the proteins. Equal amounts of protein were separated on SDS-polyacrylamide gels and transferred to polyvinylidene difluoride (PVDF) membranes. The blots were probed with antibodies against: EED (07-368), SUZ12 (07-379), SUV39H1 (07-550), BMI1 (05-637), tri-methylated H3-K27 (07-449), tri-methylated H3-K9 (07-442) and Acetyl-Histone H3 (06-599), and were purchased from Upstate. EZH2 (AC22) and Histone H3 (3H1) were from Cell Signaling. […]

MCF10A cells = assay: Apoptosis by FACS analysis in non-cancerous cells; type: cell-based; conditions: 5 μM
Protocol: Cells were treated with 5 μM 3-deazaneplanocin (DZNep, dark bars) for indicated times.
(§1) FIG. 6A depicts an analysis of the breast cancer cell lines MCF-7, MB-468, SK-BR-3, MB-231, T47D and BT549 for an apoptotic effect of 5 μM 3-deazaneplanocin over a time frame of 120 hours. Cell death was measured by FACS analysis. Data presented are the average of three independent experiments.
(§2) Cells were trypsinised and washed with PBS and fixed in 70% ethanol and processed for propidium iodide staining and FACS analysis. For the caspase 3 activity assay and mitochondrial membrane potential detection, cells were stained with anti-active caspase 3 and JC-1, respectively, according to the manufacturer's instructions (BD Bioscience).
To determine whether 3-deazaneplanocin preferentially induces apoptosis in cancer cells, the apoptosis induction between MCF-7 cells and the non-cancerous breast epithelial MCF10A cells was compared for various periods of time. […] In addition, normal primary colon epithelial CC33D cells, like MCF10A cells, were also resistant to 3-deazaneplanocin treatment compared to colorectal cancer HCT116 cell, as evaluated by microscopy examination (FIGS. 3G & 3H).
To extend the observation seen in MCF-7 cells, additional breast cancer cell lines were screened, including MB-468, SK-BR-3, MB-231, T47D and BT549. […]

BT-549 cells = assay: Apoptotic response time course by FACS analysis; type: cell-based; conditions: BT-549, 5 μM, time course to 120 hours
Protocol: as §1, §2
(§3) To extend the observation seen in MCF-7 cells, additional breast cancer cell lines were screened, including MB-468, SK-BR-3, MB-231, T47D and BT549. […] To identify the PRC2 target genes associated with the cellular sensitivity to 3-deazaneplanocin, the array analysis was performed in these breast cancer cell lines before and after 3-deazaneplanocin treatment and the expression of the 47 identified PRC2 targets profiled. It was reasoned that some the PRC2 target genes might be differentially expressed between the sensitive and resistant cell lines, which might confer the distinct sensitivity to 3-deazaneplanocin. […] Both the real time and conventional RT-PCR analysis of the 4 gene set confirmed the array data (FIGS. 6D & 6E). […]

MB-231 cells = assay: Apoptotic response time course by FACS analysis; type: cell-based; conditions: MB-231, 5 μM, time course to 120 hours
Protocol: as §1, §2, §3

MCF-7 and HCT116 cells = assay: Mitochondrial membrane potential by JC-1 staining and flow cytometry; type: cell-based; conditions: JC-1, flow cytometry
Source text: FIG. 3B depicts the detection of mitochondrial membrane potential of HCT116 cells by staining with the dye 5,5′,6,6′-tetrachloro-1,1′,3,3′-tetraethyl-benzamidazolocarbocyanin iodide (JC-1).
FIG. 3C compares the apoptosis in HCT116 cells (right hand side, data of FIG. 3B) to the apoptosis in MCF-7 cells (left hand side).
as §2
To elucidate the mechanisms by which 3-deazaneplanocin induces cell death, flow cytometry was used to analyse the loss of mitochondrial membrane potential (ΔΨm) in MCF-7 and HCT116 cells after 3-deazaneplanocin treatment (FIGS. 3B & 3C).

[1] = explored for antiviral treatment; cited from earlier work

For `Nc1nccc2c1ncn2C1C=C(CO)C(O)C1O` (stereo not shown) [3-deazaneplanocin, 5-(4-amino-1H-imidazo[4,5-c]pyridin-1-yl)-3-(hydroxymethyl)-3-cyclopentene-1,2-diol], the “DNMT1 or DNMT3B protein expression” value (DNMT1 or DNMT3B) was “did not cause a change”, the “sensitivity to 3-deazaneplanocin-induced cell death” value (“sensitivity” below) (MCF10A cells; MCF10A, time course to 120 hours) was “highly resistant” and the apoptosis induction (MCF10A cells; non-cancerous breast epithelial MCF10A cells, up to 96 hours) was “no obvious apoptosis”. The “sensitivity” value (BT-549 cells) was “highly resistant”, the “sensitivity” value (MB-231 cells) was “highly resistant” and the “loss of mitochondrial membrane potential (ΔΨm)” value (MCF-7 and HCT116 cells) was “marked increase in the percentage of cells with lower ΔΨm”. The toxicity in vivo [1] was “minimal toxicity”.
